PubChem BioAssay AID200 (DTP/NCI, 2004)
Several values for one entry are separate records, joined by “and”; a condition that tells them apart may be missing. Equal values may be shown once. Toxic doses and inconclusive results are not listed.

Test system: B6C3F1 mice, B16 melanoma ip, median survival T/C
Assay: NCI In Vivo Anticancer Drug Screen. Data for tumor model B16 Melanoma (intraperitoneal) in B6C3F1 mice
Details: endpoint: median survival time, higher = longer survival
Procedure, shortened: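 Mice bearing transplanted tumor were dosed with compound or vehicle, and survival was recorded. Activity is expressed as the treated-group measurement (T) divided by the vehicle control measurement (C).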

[1] = dose: 12.5 mg/kg/injection, schedule: Q01DX009 (ip), vehicle: water
[2] = dose: 25.0 mg/kg/injection, schedule: Q01DX009 (ip), vehicle: water
[3] = dose: 50.0 mg/kg/injection, schedule: Q01DX009 (ip), vehicle: water
[4] = dose: 25.0 mg/kg/injection, schedule: Q01DX009 (ip), vehicle: saline with Tween-80
[5] = dose: 50.0 mg/kg/injection, schedule: Q01DX009 (ip), vehicle: saline with Tween-80
[6] = dose: 100.0 mg/kg/injection, schedule: Q01DX009 (ip), vehicle: saline with Tween-80
[7] = dose: 200.0 mg/kg/injection, schedule: Q01DX009 (ip), vehicle: saline with Tween-80
[8] = dose: 3.12 mg/kg/injection, schedule: Q01DX009 (ip), vehicle: Klucel (hydroxypropylcellulose) (HPC)
[9] = dose: 6.25 mg/kg/injection, schedule: Q01DX009 (ip), vehicle: Klucel (hydroxypropylcellulose) (HPC)
[10] = dose: 50.0 mg/kg/injection, schedule: Q01DX009 (ip), vehicle: Klucel (hydroxypropylcellulose) (HPC)
[11] = dose: 3.12 mg/kg/injection, schedule: Q01DX009 (ip), vehicle: saline with Tween-80
[12] = dose: 6.25 mg/kg/injection, schedule: Q01DX009 (ip), vehicle: saline with Tween-80
[13] = dose: 12.5 mg/kg/injection, schedule: Q01DX009 (ip), vehicle: saline with Tween-80

O=C(O)C1CC(c2ccccc2)=NN1c1ccccc1 (stereo not drawn)
T/C [1]: 113 % of control | T/C [2]: 120 % of control | T/C [3]: 107 % of control | T/C (dose: 100.0 mg/kg/injection, schedule: Q01DX009 (ip), vehicle: water): 103 % of control | T/C (dose: 200.0 mg/kg/injection, schedule: Q01DX009 (ip), vehicle: water): 110 % of control

O=C1NC(O)CCN1C1OC(CO)C(O)C1O (stereo not drawn)
T/C (dose: 25.0 mg/kg/injection, schedule: Q01DX008 (ip), vehicle: saline): 104 % of control | T/C (dose: 50.0 mg/kg/injection, schedule: Q01DX008 (ip), vehicle: saline): 99 % of control | T/C (dose: 100.0 mg/kg/injection, schedule: Q01DX008 (ip), vehicle: saline): 104 % of control | T/C (dose: 200.0 mg/kg/injection, schedule: Q01DX008 (ip), vehicle: saline): 108 % of control | T/C (dose: 400.0 mg/kg/injection, schedule: Q01DX008 (ip), vehicle: saline): 108 % of control | T/C (dose: 800.0 mg/kg/injection, schedule: Q01DX008 (ip), vehicle: saline): 96 % of control

O=C/C=C/c1cccc([N+](=O)[O-])c1
T/C [4]: 107 % of control | T/C [5]: 116 % of control | T/C [6]: 118 % of control | T/C [7]: 124 % of control

CCCN(CCC)C(C)C(O)c1cc2c(c3ccccc13)CCCC2 (stereo not drawn)
T/C (dose: 0.05 mg/kg/injection, schedule: Q01DX009 (ip), vehicle: Klucel (hydroxypropylcellulose) (HPC)): 99 % of control | T/C (dose: 0.1 mg/kg/injection, schedule: Q01DX009 (ip), vehicle: Klucel (hydroxypropylcellulose) (HPC)): 91 % of control and 103 % of control | T/C (dose: 0.2 mg/kg/injection, schedule: Q01DX009 (ip), vehicle: Klucel (hydroxypropylcellulose) (HPC)): 97 % of control and 107 % of control | T/C (dose: 0.39 mg/kg/injection, schedule: Q01DX009 (ip), vehicle: Klucel (hydroxypropylcellulose) (HPC)): 109 % of control | T/C (dose: 0.4 mg/kg/injection, schedule: Q01DX009 (ip), vehicle: Klucel (hydroxypropylcellulose) (HPC)): 96 % of control and 101 % of control | T/C (dose: 0.78 mg/kg/injection, schedule: Q01DX009 (ip), vehicle: Klucel (hydroxypropylcellulose) (HPC)): 108 % of control | T/C (dose: 1.56 mg/kg/injection, schedule: Q01DX009 (ip), vehicle: Klucel (hydroxypropylcellulose) (HPC)): 114 % of control and 95 % of control and 96 % of control | T/C [8]: 94 % of control | T/C [9]: 96 % of control and 101 % of control | T/C [10]: 86 % of control

Cc1cc(=NO)cc(C)n1O
T/C (dose: 25.0 mg/kg/injection, schedule: Q01DX009 (ip), vehicle: distilled water + alcohol): 109 % of control and 94 % of control | T/C (dose: 50.0 mg/kg/injection, schedule: Q01DX009 (ip), vehicle: distilled water + alcohol): 98 % of control and 105 % of control | T/C (dose: 100.0 mg/kg/injection, schedule: Q01DX009 (ip), vehicle: distilled water + alcohol): 87 % of control and 92 % of control | T/C (dose: 200.0 mg/kg/injection, schedule: Q01DX009 (ip), vehicle: distilled water + alcohol): 92 % of control | T/C (dose: 400.0 mg/kg/injection, schedule: Q01DX009 (ip), vehicle: distilled water + alcohol): 86 % of control and 89 % of control

CC(C)CC1C(=O)OC(C(C)C)C(=O)N(C)C(CC(C)C)C(=O)OC(C(C)C)C(=O)N(C)C(CC(C)C)C(=O)OC(C(C)C)C(=O)N(C)C(CC(C)C)C(=O)OC(C(C)C)C(=O)N1C (stereo not drawn)
T/C (dose: 1.0 mg/kg/injection, schedule: Q01DX009 (ip), vehicle: saline): 97 % of control | T/C (dose: 2.0 mg/kg/injection, schedule: Q01DX009 (ip), vehicle: saline): 99 % of control | T/C (dose: 4.0 mg/kg/injection, schedule: Q01DX009 (ip), vehicle: saline): 104 % of control | T/C (dose: 8.0 mg/kg/injection, schedule: Q01DX009 (ip), vehicle: saline): 102 % of control | T/C (dose: 16.0 mg/kg/injection, schedule: Q01DX009 (ip), vehicle: saline): 101 % of control

COc1cc2c(c(OC)c1OC)-c1ccc(OC)c(=O)cc1[C@@H](NC(=O)CCl)CC2
T/C (dose: 0.12 mg/kg/injection, schedule: Q01DX009 (ip), vehicle: saline with Tween-80): 154 % of control | T/C (dose: 0.25 mg/kg/injection, schedule: Q01DX009 (ip), vehicle: saline with Tween-80): 154 % of control

CCC(C)n1ncc2c(N(C)C)ncnc21 (stereo not drawn)
T/C (dose: 3.12 mg/kg/injection, schedule: Q01DX009 (ip), vehicle: saline): 98 % of control | T/C (dose: 6.25 mg/kg/injection, schedule: Q01DX009 (ip), vehicle: saline): 95 % of control | T/C (dose: 12.5 mg/kg/injection, schedule: Q01DX009 (ip), vehicle: saline): 95 % of control

C=C1CCC[C@@]2(C)CC[C@@H](/C(C)=C\C=C\C(C)(C)O)C[C@H]12
T/C (dose: 12.5 mg/kg/injection, schedule: Q01DX009 (ip), vehicle: Klucel + Tween-80): 113 % of control | T/C (dose: 25.0 mg/kg/injection, schedule: Q01DX009 (ip), vehicle: Klucel + Tween-80): 106 % of control | T/C (dose: 50.0 mg/kg/injection, schedule: Q01DX009 (ip), vehicle: Klucel + Tween-80): 107 % of control | T/C (dose: 100.0 mg/kg/injection, schedule: Q01DX009 (ip), vehicle: Klucel + Tween-80): 112 % of control | T/C (dose: 200.0 mg/kg/injection, schedule: Q01DX009 (ip), vehicle: Klucel + Tween-80): 90 % of control

CC(C)(C)OC(=O)NCCCCC(NC(=O)OC(C)(C)C)C(=O)O (stereo not drawn)
T/C [5]: 97 % of control | T/C [6]: 104 % of control | T/C [7]: 95 % of control

Cc1nn(CCO)c(C)c1N=[N+]([O-])c1c(C)nn(CCO)c1C
T/C [8]: 107 % of control | T/C [11]: 97 % of control | T/C [9]: 109 % of control | T/C [12]: 100 % of control | T/C (dose: 12.5 mg/kg/injection, schedule: Q01DX009 (ip), vehicle: Klucel (hydroxypropylcellulose) (HPC)): 111 % of control | T/C [13]: 92 % of control | T/C (dose: 25.0 mg/kg/injection, schedule: Q01DX009 (ip), vehicle: Klucel (hydroxypropylcellulose) (HPC)): 95 % of control | T/C [4]: 92 % of control | T/C [10]: 91 % of control | T/C [5]: 96 % of control | T/C (dose: 100.0 mg/kg/injection, schedule: Q01DX009 (ip), vehicle: Klucel (hydroxypropylcellulose) (HPC)): 91 % of control

Nc1n[n+](-c2ccc(Cl)cc2)no1
T/C (dose: 3.12 mg/kg/injection, schedule: Q01DX009 (ip), vehicle: water): 109 % of control | T/C (dose: 6.25 mg/kg/injection, schedule: Q01DX009 (ip), vehicle: water): 102 % of control and 107 % of control | T/C [1]: 103 % of control | T/C [2]: 111 % of control and 123 % of control | T/C [3]: 116 % of control

CCOc1ccc(C(C)c2cc3c(cc2OC)OCO3)cc1 (stereo not drawn)
T/C (dose: 25.0 mg/kg/injection, schedule: Q01DX009 (ip), vehicle: distilled water + Tween-80): 123 % of control | T/C (dose: 50.0 mg/kg/injection, schedule: Q01DX009 (ip), vehicle: distilled water + Tween-80): 107 % of control

CCCCCCCC(=O)[O][Hg][CH2]C1COC([CH2][Hg][O]C(=O)CCCCCCC)CO1 (stereo not drawn)
T/C (dose: 1.56 mg/kg/injection, schedule: Q01DX009 (ip), vehicle: saline with Tween-80): 95 % of control and 102 % of control | T/C [11]: 96 % of control and 103 % of control | T/C [12]: 94 % of control and 101 % of control | T/C [13]: 93 % of control and 97 % of control | T/C [4]: 91 % of control

Nc1nc2c(C(=O)N3CCCC3)nnn2c2ccccc12
T/C [12]: 118 % of control | T/C [13]: 104 % of control | T/C [4]: 122 % of control | T/C [5]: 107 % of control | T/C [6]: 102 % of control

Cc1cc(O)c(Cl)cc1Cl
T/C (dose: 100.0 mg/kg/injection, schedule: Q01DX009 (ip), vehicle: saline): 92 % of control | T/C (dose: 200.0 mg/kg/injection, schedule: Q01DX009 (ip), vehicle: saline): 87 % of control | T/C (dose: 400.0 mg/kg/injection, schedule: Q01DX009 (ip), vehicle: saline): 90 % of control

CC(Oc1ccccc1-c1ccccc1)C(=O)N(C)C (stereo not drawn)
T/C [13]: 95 % of control | T/C [4]: 100 % of control | T/C [5]: 95 % of control | T/C [6]: 98 % of control | T/C [7]: 106 % of control | T/C (dose: 400.0 mg/kg/injection, schedule: Q01DX009 (ip), vehicle: saline with Tween-80): 100 % of control

C(CC1CO1)C1CO1 (stereo not drawn)
T/C (dose: 2.5 mg/kg/injection, schedule: Q01DX009 (ip), vehicle: Klucel (hydroxypropylcellulose) (HPC)): 94 % of control | T/C (dose: 5.0 mg/kg/injection, schedule: Q01DX009 (ip), vehicle: Klucel (hydroxypropylcellulose) (HPC)): 101 % of control | T/C (dose: 10.0 mg/kg/injection, schedule: Q01DX009 (ip), vehicle: Klucel (hydroxypropylcellulose) (HPC)): 101 % of control | T/C (dose: 20.0 mg/kg/injection, schedule: Q01DX009 (ip), vehicle: Klucel (hydroxypropylcellulose) (HPC)): 111 % of control | T/C (dose: 40.0 mg/kg/injection, schedule: Q01DX009 (ip), vehicle: Klucel (hydroxypropylcellulose) (HPC)): 107 % of control | T/C (dose: 80.0 mg/kg/injection, schedule: Q01DX009 (ip), vehicle: Klucel (hydroxypropylcellulose) (HPC)): 98 % of control

CCCC1CCC(=C2C(=O)CCC2=O)O1 (stereo not drawn)
T/C [4]: 103 % of control | T/C [5]: 98 % of control
